Source: US12221625B2, “Method for producing retinal pigment epithelial cells” (SUMITOMO PHARMA CO., LTD., priority 2015, dated 2025)

Key:
[1] = tested on: human iPS cells (QHJI01 line); assay: Differentiation induction effect of Nodal or Wnt signal transduction pathway inhibitor alone in second step (Example 12); format: cell-based; settings: second step day 1 to day 12 with 5 μM SB-431542 and/or 3 μM CKI-7, after first step with 1 μM PD0325901 for 6 days; day 43 of culture
Text: (§1) 2014 Jan. 8; 4: 3594”. The medium used was “STEMFIT™” AK03N medium (Ajinomoto Co., Inc.) (hereinafter AK03N medium).
In the second step, the following 3 kinds of media were used.

[2] = tested on: human iPS cells (QHJI01 line and 1231A3 line); assay: MEK inhibitors PD184352, U0126, TAK-733, AZD-8330 in first step (Example 10); format: cell-based; settings: 6 days; 1 μM PD0325901; 1.5, 3, 6 μM PD184352; 5, 10 μM U0126; 0.3 μM TAK-733; 0.3 μM AZD-8330; day 49 and day 50 of culture
Text: The medium used was “STEMFIT™” AK03N medium (Ajinomoto Co., Inc.) (hereinafter AK03N medium).

[3] = tested on: human iPS cells (QHJI01 line and 1231A3 line); assay: FGF receptor inhibitor SU5402 in first step (Example 11); format: cell-based; settings: 6 days; 100 nM PD173074; 5, 10, 20 μM SU5402; day 49 of culture
Text: as §1

[4] = tested on: human iPS cells (201B7 line and 1231A3 line); assay: Production of RPE cells from human iPS cells including FGF receptor inhibitor treatment step (Example 2); format: cell-based; settings: PD173074 100 nM
Text: In one embodiment, to study the effect of the FGF receptor inhibitor in a medium free of a factor for maintaining undifferentiated state (bFGF), StemSure hPSC Medium Δ (Wako Pure Chemical Industries, Ltd.) (hereinafter StemSure hPSC Medium Δ w/o bFGF) not added with bFGF was used.

[5] = tested on: human iPS cells (201B7 line and 1231A3 line); assay: Production of RPE cells including combined treatment step of MEK inhibitor and/or FGF receptor inhibitor and various inhibitors or agonist (Example 3); format: cell-based; settings: first step 6 days in AK03 medium; observed 38 to 47 days of culture; FIG. 7
Procedure: (§2) The medium used was “STEMFIT™” AK03 medium (Ajinomoto Co., Inc.) (hereinafter AK03 medium).
Production of retinal pigment epithelial (RPE) cells including a combined treatment step of MEK inhibitor and/or FGF receptor inhibitor, and various inhibitors, signal transduction pathway inhibitor or signal transduction pathway agonist was performed as follows. iPS cells under culture for maintaining undifferentiated state were treated with 0.5×TrypLE select, dissociated using a cell scraper, dispersed to single cells by pipetting, seeded in a 6-well culture plate coated with iMatrix-511 (Nippi) (0.5 μg/cm^2) at 1.2×10^4 cells per 1 well and cultured in a ROCK inhibitor [10 μM Y-27632 (Wako Pure Chemical Industries, Ltd.)]-containing AK03 medium under 37° C., 5% CO2 conditions. The next day of cell seeding, PD0325901 (SIGMA) (final concentration 1 μM) as an MEK inhibitor, PD173074 (SIGMA) (final concentration 100 nM) as an FGF receptor inhibitor, LDN193189 (STEMGENT) (final concentration 100 nM) as a BMP receptor inhibitor, SAG (Enzo Life Sciences) (final concentration 30 nM) as an Shh signal transduction pathway agonist, and Go6983 (SIGMA) (final concentration 2 μM) as a PKC inhibitor in the combination shown in FIG. 7 were added to the medium (start of the first step) and the cells were exposed thereto for 6 days (completion of the first step). […]

[6] = tested on: human iPS cells (Ff-I01 line and QHJI01 line); assay: Production of RPE cells including MEK inhibitor or FGF receptor inhibitor treatment step using iPS cells Ff-I01, QHJI01 (Example 4); format: cell-based; settings: PD0325901 1 μM or PD173074 100 nM, 6 days, AK03N medium; day 43 of culture; both Ff-I01 and QHJI01 lines
Text: as §1

[7] = tested on: human iPS cells (QHJI01 line); assay: Number of days of exposure of each inhibitor in first step (Example 5); format: cell-based; settings: day 48 of culture; for brown-black cell population: 4 days-6 days of exposure; for proportion of cells that developed color in the whole well versus number of exposure days: exposure 1 day to 6 days; for brown-black cell populations: exposure for not less than 2 days, PD0325901 1 μM or PD173074 100 nM
Text: as §1

[8] = tested on: human iPS cells (QHJI01 line); assay: Inhibitor concentrations in MEK inhibitor or FGF receptor inhibitor treatment step (Example 8); format: cell-based; settings: 6 days, day 36 and day 49 of culture
Text: as §1

[9] = tested on: human iPS cells (QHJI01 line); assay: Seeded cell number in transition of first step to second step (Example 9); format: cell-based; settings: all seeded cell number (0.2, 0.4, 0.6, 1.0, 2.0, or 4.0×10^4 cells/cm^2) at start of second step; PD0325901 1 μM or PD173074 100 nM, 6 days; day 49 of culture
Text: as §1

[10] = tested on: human iPS cells (1231A3 line); assay: Production of RPE cells including MEK inhibitor or FGF receptor inhibitor treatment step, plate observation (Example 14); format: cell-based; settings: PD0325901 1 μM or PD173074 100 nM, 6 days; day 43 of culture
Text: as §1

[11] = tested on: RPE65, BEST1, CRALBP; assay: RT-PCR of retinal pigment epithelial cell markers in produced RPE cells (Example 14); format: cell-based, human; settings: PD0325901 1 μM or PD173074 100 nM, 6 days; cells collected day 43 of culture
Procedure: After observation on day 43 of culture, the cells were collected, RNA was extracted and RT-PCR was performed. RNeasy Micro Kit (QIAGEN) was used for RNA extraction, Oligo (dT)12-18 Primer (Invitrogen) and SuperScript III Reverse Transcriptase (Invitrogen) were used for reverse transcription reaction, and Blend Taq-Plus- (TOYOBO) was used for PCR. The primer sequences of RPE65, BEST1, CRLBP, GAPDH are as described below. […] NO: 1), […] NO: 2), […] NO: 3), […] NO: 4), CRALBP-[…] NO: 5), CRALBP-[…] NO: 6), […] NO: 7), […] NO: 8). The number of cycles of the PCR reaction was 30 cycles for RPE65, BEST1, GAPDH, and 35 cycles for CRALBP. PCR products were detected as a single band by agarose gel electrophoresis at near 369 bp for RPE65, near 261 bp for BEST1, near 341 bp for CRALBP, and near 452 bp for GAPDH. As a positive control, primary human RPE (hRPE) was used and, as a negative control, iPS cells (undifferentiated iPSC) cultured under conditions for maintaining undifferentiated state were used.

[12] = tested on: human iPS cells (201B7 line and 1231A3 line); assay: Production of RPE cells from human iPS cells including MEK inhibitor treatment step (Example 1); format: cell-based
Procedure: The medium used was “STEMFIT™” AK03 medium (Ajinomoto Co., Inc.) (hereinafter AK03 medium) or Essential 8 medium (Life Technologies).
Production of retinal pigment epithelial (RPE) cells including an MEK inhibitor treatment step was performed as follows. iPS cells under culture for maintaining undifferentiated state were treated with 0.5×TrypLE select (mixture of equal amounts of TrypLE select (Life Technologies)) and 0.5 mM EDTA/PBS(−)), dissociated using a cell scraper, dispersed to single cells by pipetting, seeded in a 6-well culture plate coated with iMatrix-511 (Nippi) (0.5 μg/cm^2) at 1.2×10^4 cells per 1 well, and cultured in an AK03 medium or Essential 8 medium containing a ROCK inhibitor [10 μM Y-27632 (Wako Pure Chemical Industries, Ltd.)] under 37° C., 5% CO2 conditions. On the next day of seeding, PD0325901 (SIGMA) as an MEK inhibitor was added to the AK03 medium at a final concentration of 1 μM or Essential 8 medium at a final concentration of 0.03 μM (start of the first step) and the cells were exposed thereto for 6 days (completion of the first step). […]

[13] = tested on: human iPS cells (1231A3 line); assay: MEK inhibitor exposure period in MEK inhibitor treatment step (Example 6); format: cell-based; settings: PD0325901 1 μM, day 37 of culture
Procedure: as §2
Production of retinal pigment epithelial (RPE) cells including an MEK inhibitor treatment step was performed as follows. iPS cells under culture for maintaining undifferentiated state were treated with 0.5×TrypLE select (mixture of equal amounts of TrypLE select (Life Technologies) and 0.5 mM EDTA/PBS(−)), dissociated using a cell scraper, dispersed to single cells by pipetting, seeded in a 6-well culture plate coated with iMatrix-511 (Nippi) (0.5 μg/cm^2) at 1.2×10^4 cells per 1 well and cultured in a ROCK inhibitor [10 μM Y-27632 (Wako Pure Chemical Industries, Ltd.)]-containing AK03 medium under 37° C., 5% CO2 conditions. On the next day of seeding, 4 days later or 6 days later, PD0325901 (SIGMA) (final concentration 1 μM) as an MEK inhibitor was added to the AK03 medium (start of the first step) and the cells were exposed thereto for 6 days, 3 days or 1 day (completion of the first step). In addition, cells exposed to MEK inhibitor for 6 days were treated with 0.5×TrypLE select, dissociated using a cell scraper, dispersed to single cells by pipetting, seeded in a 6-well culture plate coated with iMatrix-511 (Nippi) (0.5 μg/cm^2) at 0.8×10^4 cells per 1 well and further cultured for 7 days in AK03 medium containing Y-27632 (final concentration 10 μM) and PD0325901 (final concentration 1 μM) under 37° C., 5% CO2 conditions, whereby the cells were exposed to the MEK inhibitor for 13 days (completion of the first step). Thereafter, the cells were treated with 0.5×TrypLE select, dissociated using a cell scraper, dispersed to single cells by pipetting, seeded in a 6-well culture plate coated with iMatrix-511 (0.5 μg/cm^2) at 1.2×10^6 cells per 1 well and cultured under 37° C., 5% CO2 conditions (start of the second step). […]

## NC(=O)c1ccc(-c2nc(-c3ccc4c(c3)OCO4)c(-c3ccccn3)[nH]2)cc1 [NODALi, 4-[4-(1,3-Benzodioxol-5-yl)-5-(pyridin-2-yl)-1H-imidazol-2-yl]benzamide]
[1]
  emergence of cells showing typical characteristics of RPE cell: emergence of cells showing the same level of typical characteristics of RPE cell such as a brown-black, polygonal, cobblestone-like morphology could be confirmed

## O=C(NOCC1CC1)c1ccc(F)c(F)c1Nc1ccc(I)cc1Cl [PD184352]
[2]
  emergence of brown-black cell population: emergence of a brown-black cell population could be confirmed over a wide area

## N#CC(=C(N)Sc1ccccc1N)C(C#N)=C(N)Sc1ccccc1N [U0126, 1,4-Diamino-2,3-dicyano-1,4-bis[2-aminophenylthio]butadiene]
[2]
  emergence of brown-black cell population: emergence of a brown-black cell population could be confirmed over a wide area

## NCCNS(=O)(=O)c1ccc(Cl)c2ccncc12 [WNTi, N-(2-Aminoethyl)-5-chloroisoquinoline-8-sulfonamide]
[1]
  emergence of cells showing typical characteristics of RPE cell: the brown-black area in the whole well decreased; however, emergence of a sufficient number of cells showing the typical characteristics of RPE cell could be confirmed

## Cn1c(=O)c(F)c(Nc2ccc(I)cc2F)c2c(=O)n(C[C@@H](O)CO)cnc21 [TAK-733, (R)-3-(2,3-dihydroxypropyl)-6-fluoro-5-(2-fluoro-4-iodophenylamino)-8-methylpyrido[2,3-d]pyrimidine-4,7(3H, 8H)-dione]
[2]
  emergence of brown-black cell population: emergence of a brown-black cell population could be confirmed over a wide area

## Cc1c[nH]c(C=C2C(=O)Nc3ccccc32)c1CCC(=O)O [SU5402, 2-[(1,2-Dihydro-2-oxo-3H-indol-3-ylidene)methyl]-4-methyl-1H-pyrrole-3-propanoic acid]
[3]
  emergence of brown-black cell population: emergence of a brown-black cell population could be confirmed over a wide area

## CCN(CC)CCCCNc1ncc2cc(-c3cc(OC)cc(OC)c3)c(NC(=O)NC(C)(C)C)nc2n1 [PD173074, N-[2-[[4-(Diethylamino)butyl]amino]-6-(3,5-dimethoxyphenyl)pyrido[2,3-d]pyrimidin-7-yl]-N′-(1,1-dimethylethyl)urea]
[4]; 6 days first step, 201B7, FIG. 5
  cell morphology by microscopic observation: the cells showed typical characteristics of RPE cell such as a brown-black, polygonal, cobblestone-like morphology
[4]; 6 days, AK03 medium, Essential 8 medium or StemSure hPSC Medium Δ w/o bFGF, observed 38 to 42 days, 201B7 line and/or 1231A3 line
  emergence of brown-black cell population on culture plate: emergence of a brown-black cell population could be confirmed over a wide area
[5]
  emergence of RPE cells showing typical characteristics: emergence of RPE cells showing typical characteristics of RPE cell such as a brown-black, polygonal, cobblestone-like morphology could be confirmed
[6]
  emergence of brown-black cell population on culture plate: emergence of a brown-black cell population could be confirmed over a wide area
[7]
  brown-black cell population: a remarkable increase in the brown-black cell population was seen
  proportion of cells that developed color in the whole well versus number of exposure days: the proportion of cells that developed color in the whole well increased as the number of exposure day increased up to 6 days of exposure
  brown-black cell populations: brown-black cell populations increased
[8]; all FGF receptor inhibitor concentrations (25-400 nM)
  emergence of brown-black cell population: emergence of a brown-black cell population could be confirmed over a wide area
[9]
  emergence of brown-black cell population: emergence of a brown-black cell population could be confirmed over a wide area
[3]
  emergence of brown-black cell population: emergence of a brown-black cell population could be confirmed over a wide area
[10]
  emergence of brown-black cell population: emergence of a brown-black cell population could be confirmed over a wide area
[11]
  bands of retinal pigment epithelial cell markers RPE65, BEST1, CRALBP by RT-PCR: clear bands could be confirmed

## O=C(NOC[C@H](O)CO)c1ccc(F)c(F)c1Nc1ccc(I)cc1F [PD0325901, N-[(2R)-2,3-Dihydroxypropoxy]-3,4-difluoro-2-[(2-fluoro-4-iodophenyl)amino]-benzamide]
[12]; PD0325901 1 μM in AK03 medium or 0.03 μM in Essential 8 medium, exposed 6 days, observed 38 to 42 days of culture, both 201B7 and 1231A3 lines
  emergence of brown-black cell population on culture plate: emergence of a brown-black cell population could be confirmed over a wide area
[12]; PD0325901 1 μM, 6 days first step, 201B7, FIG. 2
  cell morphology by microscopic observation: the cells showed typical characteristics of RPE cell such as a brown-black, polygonal, cobblestone-like morphology
[5]
  emergence of RPE cells showing typical characteristics: emergence of RPE cells showing typical characteristics of RPE cell such as a brown-black, polygonal, cobblestone-like morphology could be confirmed
[6]
  emergence of brown-black cell population on culture plate: emergence of a brown-black cell population could be confirmed over a wide area
[7]
  brown-black cell population: a remarkable increase in the brown-black cell population was seen
  proportion of cells that developed color in the whole well versus number of exposure days: the proportion of cells that developed color in the whole well increased as the number of exposure day increased up to 6 days of exposure
  brown-black cell populations: brown-black cell populations increased
[13]; exposure for 3 days
  emergence of brown-black cell population: emergence of a brown-black cell population could be confirmed over a wide area
[13]; exposure for 6 days
  emergence of brown-black cell population: emergence of a brown-black cell population could be confirmed over a wide area
[13]; exposure for 13 days
  emergence of colored cell population: sufficient emergence of colored cell population was also confirmed
[13]; exposure for one day
  cells showing typical characteristics of RPE cell: almost no cell that showed typical characteristics of RPE cell
[8]; all MEK inhibitor concentrations (0.25-4 μM)
  emergence of brown-black cell population: emergence of a brown-black cell population could be confirmed over a wide area
[9]
  emergence of brown-black cell population: emergence of a brown-black cell population could be confirmed over a wide area
[2]
  emergence of brown-black cell population: emergence of a brown-black cell population could be confirmed over a wide area
[10]
  emergence of brown-black cell population: emergence of a brown-black cell population could be confirmed over a wide area
[11]
  bands of retinal pigment epithelial cell markers RPE65, BEST1, CRALBP by RT-PCR: clear bands could be confirmed

## Cc1cc(C(=O)NOCCO)c(Nc2ccc(I)cc2F)n(C)c1=O [AZD-8330, 2-(2-fluoro-4-iodophenylamino)-N-(2-hydroxyethoxy)-1,5-dimethyl-6-oxo-1,6-dihydropyridine-3-carboxamide]
[2]
  emergence of brown-black cell population: emergence of a brown-black cell population could be confirmed over a wide area
